Test results reported in patent publication US20240294551A1 (AMGEN INC., priority 2022, published 2024).
Like-named read-outs stand apart in the source and are kept apart here.

Assays:
[1] = biological target: GDP-bound KRAS protein (aa 1-169), containing both G12D and C118A amino acid substitutions (Homo sapiens (Human), UniProt P01116, C118A/G12D); test: KRAS G12D Coupled Nucleotide Exchange Assay; format: biochemical
[2] = biological target: His-tagged KRAS G12D protein (Homo sapiens (Human), UniProt P01116, G12D); test: KRAS G12D TR-FRET Assay; format: binding
Sequence of His-tagged KRAS G12D protein (P01116 other isoform, or with tags, fused parts or gaps G12D): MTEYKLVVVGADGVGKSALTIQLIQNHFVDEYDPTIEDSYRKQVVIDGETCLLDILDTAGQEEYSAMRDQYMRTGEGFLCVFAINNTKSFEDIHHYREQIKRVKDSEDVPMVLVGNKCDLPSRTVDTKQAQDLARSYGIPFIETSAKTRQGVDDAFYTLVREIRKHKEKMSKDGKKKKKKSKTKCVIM
Procedure, shortened: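 His-tagged KRAS G12D (diluted to 20 nM in pH 7.4 HEPES buffer with 10 mM MgCl2 and 10 μM GDP) was preincubated with titrated compound for 30 min at room temperature. Biotinylated KRPep-2d peptide (diluted to 20 nM) was then added for 1 h, and displacement was monitored by TR-FRET.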

[3] = read-out: KRAS G12D Coupled Exchange IC50
[4] = read-out: KRAS G12D Binding IC50

Sequence of GDP-bound KRAS protein (aa 1-169), containing both G12D and C118A amino acid substitutions (P01116 other isoform, or with tags, fused parts or gaps G12D/C118A): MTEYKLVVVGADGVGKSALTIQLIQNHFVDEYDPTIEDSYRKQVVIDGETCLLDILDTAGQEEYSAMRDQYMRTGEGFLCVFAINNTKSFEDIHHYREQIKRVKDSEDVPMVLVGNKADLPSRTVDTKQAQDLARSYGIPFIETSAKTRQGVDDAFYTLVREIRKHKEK

Cc1cc2[nH]ncc2c2c1CCCCCO[C@@H]1CCCN(C1)c1nc(OC[C@@]34CCCN3C[C@H](F)C4)nc3c(F)c-2ncc13 [Example 132]
IC50 [1, 3]: 67 nM
IC50 [2, 4]: 70 nM

CN1C(=O)COCC[C@@H]2CCc3cc4[nH]ncc4c(c32)-c2ncc3c(nc(OC[C@@]45CCCN4C[C@H](F)C5)nc3c2F)N2CCC[C@@H]1C2 [Example 279, (15R,22S)-34-fluoro-8-(((2R,7aS)-2-fluorotetrahydro-1H-pyrrolo[1,2-a]pyrrol-7a(5H)-yl)methoxy)-16-methyl-19-oxa-3,7,9,11,16,28,29-heptaazaheptacyclo[20.9.1.1~2,6~.1~11,15~.0~5,10~.0~25,32~.0~27,31~]tetratriaconta-1(31),2(34),3,5,7,9,25(32),26,29-nonaen-17-one]
IC50 [1, 3]: 71 nM
IC50 [2, 4]: 333 nM

CN1C(=O)OCCCc2c(Cl)cc3[nH]ncc3c2-c2ncc3c(nc(OC[C@@]45CCCN4C[C@H](F)C5)nc3c2F)N2CCOC[C@@H]1C2 [Example 178, (26S)-18-chloro-32-fluoro-4-(((2R,7aS)-2-fluorotetrahydro-1H-pyrrolo[1,2-a]pyrrol-7a(5H)-yl)methoxy)-25-methyl-23,28-dioxa-1,3,5,9,14,15,25-heptaazahexacyclo[24.4.1.1~6,10~.0~2,7~.0~11,19~.0~12,16~]dotriaconta-2,4,6,8,10(32),11,13,16,18-nonaen-24-one]
IC50 [1, 3]: 44 nM
IC50 [2, 4]: 79 nM

O[C@H]1C[C@@H]2CN(C1)c1nc(OC[C@@]34CCCN3C[C@H](F)C4)nc3c(F)c(ncc13)-c1c(c(Cl)cc3[nH]ncc13)CCCc1nc2no1 [Example 378]
IC50 ([1]; 2 hours compound pre-incubation, read-out: KRAS G12D Coupled Exchange): 15 nM
IC50 ([2]; TR-FRET, read-out: KRAS G12D Binding): 34 nM

O=C1OCCCc2c(Cl)cc3[nH]ncc3c2-c2ncc3c(nc(O[C@@H]4CCOC4)nc3c2F)N2CCOC[C@H](C2)O1 [Example 197, (26S)-18-chloro-32-fluoro-4-((3R)-tetrahydro-3-furanyloxy)-23,25,28-trioxa-1,3,5,9,14,15-hexaazahexacyclo[24.4.1.1~6,10~.0~2,7~.0~11,19~.0~12,16~]dotriaconta-2,4,6,8,10(32),11,13,16,18-nonaen-24-one]
IC50 [1, 3]: 105 nM
IC50 [2, 4]: 90 nM

Fc1c2ncc3c(nc(OC[C@@]45CCCN4C[C@H](F)C5)nc13)N1CCC[C@H](C1)Oc1nccc(n1)CCc1c(Cl)cc3[nH]ncc3c1-2 [Example 257, (19R)-9-chloro-32-fluoro-26-(((2R,7aS)-2-fluorotetrahydro-1H-pyrrolo[1,2-a]pyrrol-7a(5H)-yl)methoxy)-18-oxa-5,6,16,23,25,27,31,34-octaazaheptacyclo[26.3.1.1~13,17~.1~19,23~.0~2,10~.0~3,7~.0~24,29~]tetratriaconta-1(32),2,4,7,9,13(34),14,16,24,26,28,30-dodecaene]
IC50 [1, 3]: 178 nM
IC50 [2, 4]: 262 nM

Cc1cc2[nH]ncc2c2c1CCCCCC(=O)N[C@]1(C)CCCN(C1)c1nc(OC[C@@]34CCCN3C[C@H](F)C4)nc3c(F)c-2ncc13 [Example 21, (18R)-31-Fluoro-25-(((2R,7aS)-2-fluorotetrahydro-1H-pyrrolo[1,2-a]pyrrol-7a(5H)-yl)methoxy)-9,18-dimethyl-5,6,17,22,24,26,30-heptaazahexacyclo[25.3.1.1˜18,22˜0.0˜2,10˜0.0˜3,7˜0.0˜23,28˜]dotriaconta-1(31),2,4,7,9,23,25,27,29-nonaen-16-one]
IC50 [1, 3]: 43 nM
IC50 [2, 4]: 43 nM

Cc1cc2[nH]ncc2c2c1CCC(=O)OCCC1CCCN(C1)c1nc(OC[C@@]34CCCN3C[C@H](F)C4)nc3c(F)c-2ncc13 (mixture of isomers) [Example 107]
IC50 [1, 3]: 42 nM
IC50 [2, 4]: 70 nM

Cn1ncc2cc(Cl)c3c(c21)-c1ncc2c(nc(OC[C@@]45CCCN4C[C@H](F)C5)nc2c1F)N1CCOC[C@H](C1)OC(=O)OCCC3 [Example 364, (26S)-18-chloro-32-fluoro-4-(((2R,7aS)-2-fluorotetrahydro-1H-pyrrolo[1,2-a]pyrrol-7a(5H)-yl)methoxy)-13-methyl-23,25,28-trioxa-1,3,5,9,13,14-hexaazahexacyclo[24.4.1.1~6,10~.0~2,7~.0~11,19~.0~12,16~]dotriaconta-2,4,6,8,10(32),11,14,16,18-nonaen-24-one]
IC50 [1, 3]: 20 nM
IC50 [2, 4]: 102 nM

Cc1nc2c3cnc(c(F)c3n1)-c1c(c(C)cc3[nH]ncc13)[C@H]1C[C@H]1COC(=O)O[C@@H]1CCCN2C1 [Example 211, (11S,13R,18R)-31-fluoro-9,25-dimethyl-15,17-dioxa-5,6,22,24,26,30-hexaazaheptacyclo[25.3.1.1~18,22~.0~2,10~.0~3,7~.0~11,13~.0~23,28~]dotriaconta-1(31),2,4,7,9,23,25,27,29-nonaen-16-one]
IC50 [1, 3]: 268 nM
IC50 [2, 4]: 617 nM

Cc1cc2[nH]ncc2c2c1CCCCC(=O)OC1CN(CC3(CC3)C1)c1nc(OC[C@@]34CCCN3C[C@H](F)C4)nc3c(F)c-2ncc13 (mixture of isomers) [Example 80, (17′R)-30′-fluoro-24′-(((2R,7aS)-2-fluorotetrahydro-1H-pyrrolo[1,2-a]pyrrol-7a(5H)-yl)methoxy)-9′-methyl-16′-oxa-5′,6′,21′,23′,25′,29′-hexaazaspiro[cyclopropane-1,19′-hexacyclo[24.3.1.1~17,21~.0~2,10~.0~3,7~.0~22,27~]hentriacontane]-1′(30′),2′,4′,7′,9′,22′,24′,26′,28′-nonaen-15′-one]
IC50 [1, 3]: 47 nM
IC50 [2, 4]: 55 nM

Fc1c2ncc3c(nc(OC[C@@]45CCCN4C[C@H](F)C5)nc13)N1CCO[C@@H](CCOCCCc3c(Cl)cc4[nH]ncc4c3-2)C1 [Example 224]
IC50 [1, 3]: 39 nM
IC50 [2, 4]: 63 nM

Cc1cc2[nH]ncc2c2c1CCCCC(=O)OC1CN(CC(F)(F)C1)c1nc(OC[C@@]34CCCN3C[C@H](F)C4)nc3c(F)c-2ncc13 (mixture of isomers) [Example 81]
IC50 [1, 3]: 212 nM
IC50 [2, 4]: 279 nM

O=C1CCCCc2c(Cl)cccc2-c2ncc3c(nc(OC[C@@]45CCCN4C[C@H](F)C5)nc3c2F)N2CCC[C@H](C2)N1 [Example 59, (23R)-15-chloro-28-fluoro-4-(((2R,7aS)-2-fluorotetrahydro-1H-pyrrolo[1,2-a]pyrrol-7a(5H)-yl)methoxy)-1,3,5,9,22-pentaazapentacyclo[21.3.1.1~6,10~.0~2,7~.0~11,16~]octacosa-2,4,6,8,10(28),11,13,15-octaen-21-one]
IC50 [1, 3]: 481 nM
IC50 [2, 4]: 651 nM

O=C1OCCCc2c(Cl)cc3[nH]ncc3c2-c2ncc3c(nc(OC[C@@]45CCCN4C[C@H](F)C5)nc3c2F)N2CCOC[C@@](CF)(C2)O1 [Example 310, (26R)-18-chloro-32-fluoro-26-(fluoromethyl)-4-(((2R,7aS)-2-fluorotetrahydro-1H-pyrrolo[1,2-a]pyrrol-7a(5H)-yl)methoxy)-23,25,28-trioxa-1,3,5,9,14,15-hexaazahexacyclo[24.4.1.1~6,10~.0~2,7~.0~11,19~.0~12,16~]dotriaconta-2,4,6(32),7,9,11,13,16,18-nonaen-24-one]
IC50 [1, 3]: 1490 nM
IC50 [2, 4]: 2260 nM

Cc1c2ncc3c(nc(OC[C@]45CC[C@@H](CC4)C(=O)N5)nc13)N1CCC[C@](C)(C1)NC(=O)CCCc1c(F)ccc3cc(O)cc-2c13 [Example 25, (15R)-22-Fluoro-27-hydroxy-15,31-dimethyl-8-(((1s,4s)-3-oxo-2-azabicyclo[2.2.2]octan-1-yl)methoxy)-3,7,9,11,16-pentaazahexacyclo[19.7.1.1˜2,6˜.1˜11,15˜.0˜5,10˜.0˜25,29˜]hentriaconta-1(28),2(31),3,5,7,9,21,23,25(29),26-decaen-17-one]
IC50 [1, 3]: 7 nM
IC50 [2, 4]: 10 nM

Cc1cc2[nH]ncc2c2c1CCCCO[C@@H](C)[C@@H]1CN(CCO1)c1nc(OC[C@@]34CCCN3C[C@H](F)C4)nc3c(F)c-2ncc13 [Example 244, (16S,17S)-30-fluoro-24-(((2R,7aS)-2-fluorotetrahydro-1H-pyrrolo[1,2-a]pyrrol-7a(5H)-yl)methoxy)-9,16-dimethyl-15,18-dioxa-5,6,21,23,25,29-hexaazahexacyclo[24.3.1.1~17,21~.0~2,10~.0~3,7~.0~22,27~]hentriaconta-1(30),2,4,7,9,22,24,26,28-nonaene]
IC50 [1, 3]: 30 nM
IC50 [2, 4]: 27 nM

O=C1CCCc2c(F)ccc3cccc(c23)-c2ncc3c(nc(OC[C@@]45CCCN4C[C@H](F)C5)nc3c2F)N2CC[C@@H]3CCN1[C@@H]3C2 [Example 71, (27R,31S)-18,33-Difluoro-4-(((2R,7aS)-2-fluorotetrahydro-1H-pyrrolo[1,2-a]pyrrol-7a(5H)-yl)methoxy)-1,3,5,9,24 pentaazaheptacyclo[22.5.2.1˜6,10˜.1˜11,15˜.0˜2,7˜.0˜19,32˜.0˜27,31˜]tritriaconta-2,4,6,8,10(33),11,13,15(32),16,18-decaen-23-one]
IC50 [1, 3]: 119 nM
IC50 [2, 4]: 306 nM

CN(C)CC1(COc2nc3c4cnc(c(F)c4n2)-c2c(c(Cl)cc4[nH]ncc24)CCCOC(=O)O[C@@]2(C)COCCN3C2)CC1 [Example 332, (26R)-18-chloro-4-((1-((dimethylamino)methyl)cyclopropyl)methoxy)-32-fluoro-26-methyl-23,25,28-trioxa-1,3,5,9,14,15-hexaazahexacyclo[24.4.1.1~6,10~.0~2,7~.0~11,19~.0~12,16~]dotriaconta-2,4,6,8,10(32),11,13,16,18-nonaen-24-one]
IC50 [1, 3]: 2110 nM
IC50 [2, 4]: 3240 nM

Fc1c2ncc3c(nc(OC[C@@]45CCCN4C[C@H](F)C5)nc13)N1CCC[C@@H](C1)c1coc(n1)CCCc1c(Cl)cc3[nH]ncc3c1-2 [Example 245, (18S)-9-chloro-31-fluoro-25-(((2R,7aS)-2-fluorotetrahydro-1H-pyrrolo[1,2-a]pyrrol-7a(5H)-yl)methoxy)-15-oxa-5,6,22,24,26,30,33-heptaazaheptacyclo[25.3.1.1~14,17~.1~18,22~.0~2,10~.0~3,7~.0~23,28~]tritriaconta-1(31),2,4,7,9,14(33),16,23,25,27,29-undecaene]
IC50 [1, 3]: 344 nM
IC50 [2, 4]: 583 nM
